Patent US20100160454A1, “ANTIMICROBIAL AGENTS, COMPOSITIONS AND PRODUCTS CONTAINING THE SAME, AND METHODS OF USING THE COMPOSITIONS AND PRODUCTS” (Eastman Chemical Company, priority 2008, published 2010)

Assays:
Type in all cases: cell-based
[1] = system: Aspergillus niger Wild type; experiment: Microbiological challenge testing in BPW broth, graded subculture counts; details: A. niger
Experimental: The microorganisms in the table below were used in challenge tests. They were either ATCC (American Type Culture Collection) or “wild type” as indicated. Wild type organisms were problematic organisms previously isolated from chemical products.
All of the microorganisms were grown in Tryptose Soy Broth (TSB), DIFCO™ available from Becton, Dickinson and Company, containing 1% dextrose. Candida albicans and Aspergillus niger, were incubated at 22° C.+/−2° C. for at least 96 hours. All bacteria were incubated at 35° C.+/−2° C. in a humidified incubator for at least 96 hours.
Candida albicans and Aspergillus niger were also grown on Sabouraud Dextrose Agar (SABD) at 22° C. for 7 to 14 days or until full sporulation was achieved.
The following procedure was followed to determine the amount of each challenge material (inoculum broth) needed to produce a 10^8 CFU/mL challenge, which is equivalent to a final test-sample microbial concentration of 10^5 to 10^6 CFU/mL (CFU=colony forming units).
Using a sterile pipette, 1 mL of the growth from each TSB culture was transferred into tubes of 9 mL buffered water (pH 7.2 phosphate buffer) and mixed thoroughly. This was repeated to make serial 1:10 dilutions. Then, 0.1 mL of each sample and dilution was inoculated onto agar plates to produce the equivalent of a further 1:10 dilution. (C. albicans and A. niger were inoculated onto SABD and bacteria were inoculated onto Plate Count Agar (PCA), DIFCO™ available from Becton, Dickinson and Company.) (The normal volume plated for most samples was 0.1 mL. Some samples that could be very low in micro-organisms (high dilutions) were plated using 0.5 mL of inoculum, in order to produce reproducible counts.) The samples were distributed on the plates using the spread-plate technique. The spread-plate technique is carried out by spreading the sample over the entire plate surface using a sterile spreading rod while rotating the plate with a rotary auto-plater. After the inoculum was absorbed completely by the agar, each plate was inverted and incubated (fungi at 22° C.+/−2° C. and bacteria at 35° C.+/−2° C.).
After incubation for at least 48 hours, colonies that had developed on the agar plates were counted (CFU) and recorded with the corresponding dilution. If counting had to be delayed temporarily, plates were refrigerated, preferably no more than 24 hours, until they could be counted. The number of CFU/mL was determined by multiplying the plate count by the dilution factor of the plate counted.
Turbidity in Nepholemetric Turbidity Units (NTU) was measured for each serial dilution using the HF-Micro 100 Model Turbidimeter. For each microorganism, the plate counts were compared to the turbidity readings.
Aspergillus niger cultures were harvested and spores dislodged from the SABD on which they were grown by rubbing the growth gently with a sterile inoculating loop. The spores were then mixed into the broth culture that had been incubated with a sterile magnetic stir bar to reduce pellicle formation. The spore-culture mixture was filtered repeatedly through sterile, nonabsorbent cotton and harvested repeatedly, adjusting vegetative cells and spores to a level of 1.0×10^8. A hemocytometer was used to verify the final challenge concentration.
Control substrates (“broth alone”) were prepared for each microorganism separately in triplicate by adding 13.5 mL of Buffered Peptone Water broth (BPW) containing 1% dextrose to each 20-mL glass tube, then adding 1.5 mL challenge material to produce a final concentration at time zero of 10^5 to 10^6 CFU/mL and a total volume of 15 mL.

[2] = system: Malassezia furfur (ATCC 96809); experiment: Challenge testing against pathogenic fungi, growth rating in broth tubes; set-up: key: 0: No visible growth; 1: Some growth in tube; 2: Moderate growth in tube; 3: Good growth in tube; 4: Extreme growth in tube
Experimental: (§1) Both Microsporum canis and Trichophyton rubrum were grown on Sabouraud dextrose broth, while Malassezia fufur was grown in Sabouraud dextrose broth supplemented with 2% (v/v) of olive oil and 0.2% (v/v) of Tween™ 80; incubation was at 22°±2° C. under continuous agitation by stirring for 10 days. The organisms were grown to a density of between 1.0×10^3 to 1.0×10^4 cfu/g. The actual inoculation cell density of these challenges were determined by diluting in sterile buffer water and (spread-plate method) plating for enumeration.
(§2) Challenge organisms were used to inoculate tubes of 1,4-CHDM-D90 test concentrations prepared in Sabouraud dextrose broth (or Sabouraud dextrose broth supplemented with olive oil-Tween™ 80 with M. furfur). The inoculations were in the amount of 1.5 mL aliquots of each culture with static incubation at 22±2° C. Subcultures were made at 3-, 14- and 30-day increments. All challenges were conducted in triplicate. In the case of M. canis, the growth response was assessed by the visual presence/absence of growth in the tubes; in the case of T. rubrum, a respiratory (redox) dye (0.2% w/v aqueous INT solution: 2-[4-iodophenyl)-3-4-nitrophenyl]-5-phenyl tetrazolium chloride) was added to the tubes, turning red if the organism was viable; and, finally, in the case of M. furfur, the growth response was assessed based upon pellicle formation in the tubes at the meniscus. The test formulations and challenge test results, as well as 30-day MICs (Minimum Inhibitory Concentration), are in Tables 7-9 for the three organisms using the following growth rating system:
(§3) • 0: No visible growth • 1: Some growth in tube • 2: Moderate growth in tube • 3: Good growth in tube • 4: Extreme growth in tube

[3] = system: Trichophyton rubrum (ATCC 10218); experiment: as above; set-up: key: 0: No visible growth; 1: Some growth in tube; 2: Moderate growth in tube; 3: Good growth in tube; 4: Extreme growth in tube
Experimental: as §1, §2, §3

| SMILES | Grade ([1]; 0.5% (wt/vol), 3 day) | Grade ([1]; 0.5% (wt/vol), 13 day) | Grade ([1]; 0.5% (wt/vol), 30 day) | Grade ([1]; 1.25% (wt/vol), 3 day) | Grade ([1]; 1.25% (wt/vol), 13 day) | Grade ([1]; 1.25% (wt/vol), 30 day) | Grade ([1]; 2.5% (wt/vol), 3 day) | Grade ([1]; 2.5% (wt/vol), 13 day) | Grade ([1]; 2.5% (wt/vol), 30 day) | Grade ([1]; 5.0% (wt/vol), 3 day) | Grade ([1]; 5.0% (wt/vol), 13 day) | Grade ([1]; 5.0% (wt/vol), 30 day) | M. furfur growth rating, 3 day ([2]; 0.5% weight/volume) | M. furfur growth rating, 14 day ([2]; 0.5% weight/volume) | M. furfur growth rating, 30 day ([2]; 0.5% weight/volume) | M. furfur growth rating, 3 day ([2]; 1.25% weight/volume) | M. furfur growth rating, 14 day ([2]; 1.25% weight/volume) | M. furfur growth rating, 30 day ([2]; 1.25% weight/volume) | M. furfur growth rating, 3 day ([2]; 2.5% weight/volume) | M. furfur growth rating, 14 day ([2]; 2.5% weight/volume) | also measured |
| --- | --- | --- | --- | --- | --- | --- | --- | --- | --- | --- | --- | --- | --- | --- | --- | --- | --- | --- | --- | --- | --- |
| OCC1CCCCC1CO (stereo not drawn) [1,2-CHDM, 1,2-cyclohexanedimethanol] | 4.7 | 4 | 4 | 3.3 | 3.3 | 4 | 2 (Countable (10 to 100 colonies)) | 0 | 0 | 0 | 0 | 0 | 0 | 0 | 0 | 0 | 0 | 0 | 0 | 0 | M. furfur growth rating, 30 day ([2]; 2.5% weight/volume): 0; M. furfur growth rating, 3 day ([2]; 5.0% weight/volume): 0; M. furfur growth rating, 14 day ([2]; 5.0% weight/volume): 0; M. furfur growth rating, 30 day ([2]; 5.0% weight/volume): 0; T. rubrum growth rating, 3 day ([3]; 0.5% weight/volume): 0; T. rubrum growth rating, 14 day ([3]; 0.5% weight/volume): 0; T. rubrum growth rating, 30 day ([3]; 0.5% weight/volume): 0; T. rubrum growth rating, 3 day ([3]; 1.25% weight/volume): 0; T. rubrum growth rating, 14 day ([3]; 1.25% weight/volume): 0; T. rubrum growth rating, 30 day ([3]; 1.25% weight/volume): 0; T. rubrum growth rating, 3 day ([3]; 2.5% weight/volume): 1; T. rubrum growth rating, 14 day ([3]; 2.5% weight/volume): 0; T. rubrum growth rating, 30 day ([3]; 2.5% weight/volume): 0; T. rubrum growth rating, 3 day ([3]; 5.0% weight/volume): 0; T. rubrum growth rating, 14 day ([3]; 5.0% weight/volume): 0; T. rubrum growth rating, 30 day ([3]; 5.0% weight/volume): 0 |
| OCC1CCCC(CO)C1 (stereo not drawn) [1,3-CHDM, 1,3-cyclohexanedimethanol] | 5 | 5 | 5 | 5 | 4 | 4 | 4 | 4 | 4 | 2 (Countable (10 to 100 colonies)) | 2 (Countable (10 to 100 colonies)) | 4 | 0 | 1 | 3 | 0 | 2 | 3 | 0 | 0 | M. furfur growth rating, 30 day ([2]; 2.5% weight/volume): 0; M. furfur growth rating, 3 day ([2]; 5.0% weight/volume): 0; M. furfur growth rating, 14 day ([2]; 5.0% weight/volume): 2; M. furfur growth rating, 30 day ([2]; 5.0% weight/volume): 3; T. rubrum growth rating, 3 day ([3]; 0.5% weight/volume): 0; T. rubrum growth rating, 14 day ([3]; 0.5% weight/volume): 2; T. rubrum growth rating, 30 day ([3]; 0.5% weight/volume): 1; T. rubrum growth rating, 3 day ([3]; 1.25% weight/volume): 1; T. rubrum growth rating, 14 day ([3]; 1.25% weight/volume): 0; T. rubrum growth rating, 30 day ([3]; 1.25% weight/volume): 0; T. rubrum growth rating, 3 day ([3]; 2.5% weight/volume): 0; T. rubrum growth rating, 14 day ([3]; 2.5% weight/volume): 0; T. rubrum growth rating, 30 day ([3]; 2.5% weight/volume): 0; T. rubrum growth rating, 3 day ([3]; 5.0% weight/volume): 2; T. rubrum growth rating, 14 day ([3]; 5.0% weight/volume): 0; T. rubrum growth rating, 30 day ([3]; 5.0% weight/volume): 0 |
| OCC1CCC(CO)CC1 (stereo not drawn) [1,4-CHDM, 1,4-cyclohexanedimethanol] | 4 | 4 | 4 | 4 | 4 | 4 | 2 (Countable (10 to 100 colonies)) | 1 (Countable (1 to 10 colonies)) | 2.3 | 0 | 0 | 0 | 0 | 1 | 2 | 0 | 0 | 0 | 0 | 0 | M. furfur growth rating, 30 day ([2]; 2.5% weight/volume): 0; M. furfur growth rating, 3 day ([2]; 5.0% weight/volume): 0; M. furfur growth rating, 14 day ([2]; 5.0% weight/volume): 0; M. furfur growth rating, 30 day ([2]; 5.0% weight/volume): 0; T. rubrum growth rating, 3 day ([3]; 0.5% weight/volume): 1; T. rubrum growth rating, 14 day ([3]; 0.5% weight/volume): 1; T. rubrum growth rating, 30 day ([3]; 0.5% weight/volume): 1; T. rubrum growth rating, 3 day ([3]; 1.25% weight/volume): 0; T. rubrum growth rating, 14 day ([3]; 1.25% weight/volume): 0; T. rubrum growth rating, 30 day ([3]; 1.25% weight/volume): 0; T. rubrum growth rating, 3 day ([3]; 2.5% weight/volume): 0; T. rubrum growth rating, 14 day ([3]; 2.5% weight/volume): 0; T. rubrum growth rating, 30 day ([3]; 2.5% weight/volume): 0; T. rubrum growth rating, 3 day ([3]; 5.0% weight/volume): 1; T. rubrum growth rating, 14 day ([3]; 5.0% weight/volume): 0; T. rubrum growth rating, 30 day ([3]; 5.0% weight/volume): 0 |
| CCCCOCCO [EB, 2-butoxyethanol] | – | – | – | – | – | – | 4 | 4 | 4 | 2.5 | 0 | 0 | – | – | – | – | – | – | – | – | – |
